Test [1] has as its system Erysiphe graminis f. sp. tritici. In words: Example B-5: Action against Erysiphe graminis f. sp. tritici (wheat powdery mildew), wheat leaf segments. In kind it is in vivo. The note with it: Blumeria graminis, foliar, 168 h, 0.02% active ingredient, 7 days after inoculation, read-out: preventive fungicidal activity (inhibition). The procedure: Action Against Erysiphe graminis f. sp. tritici (Wheat Powdery Mildew) Wheat leaf segments were placed on agar in multiwell plates (24-well format) and sprayed with test solutions (0.02% active ingredient). After drying, the leaf disks were inoculated with a spore suspension of the fungus. After appropriate incubation the activity of a compound was assessed 7 days after inoculation as preventive fungicidal activity.

Test [2] concerns Botryotinia fuckeliana (Botrytis cinerea). As to the kind of experiment: Example B-14: Botryotinia fuckeliana (Botrytis cinerea) / liquid culture (comparative). The note with it: 24° C., photometric after 3-4 days, read-out: inhibition of growth. The test is classed as cell-based. The procedure: Botryotinia fuckeliana (Botrytis cinerea)/Liquid Culture (Gray Mould) Conidia of the fungus from cryogenic storage were directly mixed into nutrient broth. After placing a (DMSO) solution of the test compounds into a microtiter plate (96-well format) the nutrient broth containing the fungal spores was added. The test plates were incubated at 24° C. and the inhibition of growth is determined photometrically after 3-4 days.

For another test, the system named is Puccinia recondita. As to the kind of experiment: Example B-10: Puccinia recondita / wheat / leaf disc preventative (comparative). In kind it is in vivo. Conditions: 8 dpi. The procedure: Puccinia recondita/Wheat/Leaf Disc Preventative (Brown Rust) Wheat leaf segments were placed on agar in multiwell plates (24-well format) and sprayed with test solutions. After drying, the leaf disks were inoculated with a spore suspension of the fungus. After appropriate incubation the activity of a compound was assessed 8 dpi (days after inoculation) as preventive fungicidal activity.

Another test has as its system Pyrenophora teres. In words: Example B-12: Pyrenophora teres / barley / leaf disc preventive (comparative). The note with it: 4 dpi. The test is classed as in vivo. On the procedure: Pyrenophora teres/Barley/Leaf Disc Preventive (Net Blotch) Barley leaf segments were placed on agar in a multiwell plate (24-well format) and sprayed with test solutions. After drying, the leaf disks were inoculated with a spore suspension of the fungus. After appropriate incubation the activity of a compound was assessed 4 dpi (days after inoculation) as preventive fungicidal activity.

The subject of test [3] is Monopraphella nivalis (Microdochium nivale). As to the kind of experiment: Example B-18: Monographella nivalis (Microdochium nivale) / liquid culture (comparative). The test is classed as cell-based. The note with it: 24° C., photometric after 4-6 days, read-out: inhibition of growth. On the procedure: Monopraphella nivalis (Microdochium nivale)/Liquid Culture (Foot Rot Cereals Conidia of the fungus from cryogenic storage were directly mixed into nutrient broth (PDB potato dextrose broth). After placing a (DMSO) solution of the test compounds into a microtiter plate (96-well format) the nutrient broth containing the fungal spores was added. The test plates were incubated at 24° C. and the inhibition of growth is measured photometrically after 4-6 days.

For orientation: inhibition means the change of the read-out against control, counted positive when it falls. In the case of `CON(C(=O)c1cn(C)nc1C(F)F)C(C)c1ccc(Cl)cc1Cl` (stereo not shown) [Compound 1.023], the inhibition at 0.02 % strength in test [1] was at least 80%. For the same compound, the values for the inhibition at 20 ppm in test [2] (20 ppm) and in test [3] (20 ppm) were 20% and 0%, respectively. Also, the inhibition at 60 ppm is 100% in test [2] (60 ppm) and 50% in test [3] (60 ppm). Further, the inhibition at 200 ppm in test [2] (200 ppm) amounted to 100%. The preventive fungicidal activity in the test with Puccinia recondita (20 ppm) is 0; in the test on Puccinia recondita (60 ppm), 50; in the test on Puccinia recondita (200 ppm) it was 70; with Pyrenophora teres (20 ppm), 100; in the test on Pyrenophora teres (60 ppm), 100; in the test with Pyrenophora teres (200 ppm), 100. Also, the inhibition at 6 ppm in test [3] (6 ppm) came to 0%.

(Values after US8357634B2, “N-alkoxycarboxamides and their use as microbiocides” (Syngenta Crop Protection LLC, priority 2009, dated 2013).)
